Reference: EP3901142A1, “PYRAZOLYLBENZENE-1,3-DIOLS FOR DISEASES ASSOCIATED WITH G PROTEIN-COUPLED RECEPTOR 18 AND IN COMBINATION WITH TRANSIENT RECEPTOR POTENTIAL VANILLOID 1” (Consejo Superior de Investigaciones Científicas (CSIC), priority 2020, dated 2021)

Biological target: TRPV1 (Homo sapiens, UniProt Q8NER1)
Assay: Calcium imaging (Fura-2 AM) in TRPV1-expressing cells
Assay type: cell-based
Conditions: 5 µM; TPRV1-expressing cells
Procedure: Cell Culture. A plasmid containing GPR18 (NM_005292) was obtained from Origene (Rockville, MD) and engineered with an N-terminal GFP-tag. The resulting plasmid was used to transfect CHO-K1 cells using Lipofectamine 2000 (Invitrogen, Carlsbad CA). Clonal cells were selected in medium containing G418 (Geneticin, 800 µg/ml; Enzo Life Sciences, Farmingdale, NY). Two weeks after transfection, clones were isolated and expression was verified by fluorescence microscopy of GFP-tagged receptors. The resulting stable cell line was cultured in DMEM with 10% fetal bovine serum at 37°C, 5% CO2 and passaged every 2-3 days. […] Two weeks after transfection, clones were isolated and expression was verified by fluorescence microscopy of HA-tagged receptors. […] Intracellular calcium levels were determined by measuring fluorescence emissions from Fura-2 AM (510 nm) after alternating excitation at 340 and 380 nm at 0.25 Hz for 5 min. Images were analyzed in the NIS-Elements AR software (Nikon), and the fluorescence ratio at 340nm/380nm was converted to Ca^2+ concentrations.

Sequence of TRPV1 (Q8NER1 whole entry): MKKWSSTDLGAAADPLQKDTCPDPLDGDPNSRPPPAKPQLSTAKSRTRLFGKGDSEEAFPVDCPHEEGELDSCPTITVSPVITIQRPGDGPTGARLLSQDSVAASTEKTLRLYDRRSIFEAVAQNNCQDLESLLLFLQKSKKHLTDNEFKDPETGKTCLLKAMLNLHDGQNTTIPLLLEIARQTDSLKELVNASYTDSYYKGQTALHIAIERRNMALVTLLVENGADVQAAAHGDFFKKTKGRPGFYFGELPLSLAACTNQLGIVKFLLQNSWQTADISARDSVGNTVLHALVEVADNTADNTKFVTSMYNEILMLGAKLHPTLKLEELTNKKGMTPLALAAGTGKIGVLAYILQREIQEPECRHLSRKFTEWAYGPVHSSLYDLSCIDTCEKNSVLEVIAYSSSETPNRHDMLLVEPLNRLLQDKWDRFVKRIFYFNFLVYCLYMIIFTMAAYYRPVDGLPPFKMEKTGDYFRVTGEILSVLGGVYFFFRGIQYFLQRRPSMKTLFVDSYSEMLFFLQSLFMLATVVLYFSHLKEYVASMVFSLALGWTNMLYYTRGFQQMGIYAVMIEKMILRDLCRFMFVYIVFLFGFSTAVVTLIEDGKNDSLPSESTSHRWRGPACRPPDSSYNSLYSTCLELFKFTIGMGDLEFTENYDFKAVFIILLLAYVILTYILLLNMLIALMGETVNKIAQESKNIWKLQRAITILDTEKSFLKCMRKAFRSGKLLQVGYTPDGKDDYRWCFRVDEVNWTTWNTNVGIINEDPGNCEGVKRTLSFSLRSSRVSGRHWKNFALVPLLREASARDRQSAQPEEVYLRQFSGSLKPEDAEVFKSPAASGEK

CCCCC/C=C\C/C=C\C/C=C\C/C=C\CCCC(=O)NCCO [Anandamide]
effect on intracellular calcium (Ca^2+): increases intracellular calcium (Ca^2+)
